Reference: US6413542B1, “Direct pour-on antiparasitic skin solution and methods for treating, preventing and controlling myasis” (Merial, priority 1996, dated 2002)

Assays:
[1] = Solubility of compound A in the solvent acetyl tributyl citrate; assay type: physicochemical
Text: The solvent will be used in proportion with the concentration of the compound I and its solubility in this solvent.
It will be sought to have the lowest possible volume.

[2] = test system: Boophilus microplus; assay: Example 2: efficacy of pour-on skin solutions against Boophilus microplus on artificially infested cattle (tick counts); assay type: in vivo; details: skin solution containing 1% compound A, 1 ml per 10 kg along the line of the back
Protocol: Study of the efficacy of skin solutions according to the invention containing, respectively, 0.25, 0.50 and 1% compound A to combat Boophilus microplus.
The study was performed on 16 young male castrated Herefords (weight ranging between 114 and 172 kg).
Three skin solutions according to Example 1 were prepared:
A placebo was prepared, which differed from the skin solutions according to the invention in that it contained no compound A.
In the studies, 1 ml of skin solution or of placebo were used per 10 kg of animal weight.
The dose volume was applied along the line of the animal's back, from the head to the base of the tail.
Between days-24 and -1, the animals were artificially infested on 11 occasions with 2,500 Boophilus microplus larvae. The aim of 24-day infestation is to ensure that all of the stages of Boophilus microplus are present on the animal (eggs, larvae, adults).
On day 0, the animals receive one of the skin solutions or the placebo.
Before the skin solutions or the placebo are applied, the number of ticks present on the various animals in the different groups are counted.
The blood-engorged female ticks which become detached are included in the count.

[3] = test system: Boophilus microplus; assay: Example 4: efficacy over time of skin solutions on cattle re-infested with larvae for 13 weeks; assay type: in vivo; set-up: Efficacy index: scale not given here
Text: Study of efficacy over time.
Skin solutions according to the invention containing 0.25, 0.5 or 1% compound A where used in this example.
The composition of these solutions is the same as for the above examples.
The cattle were preinfested so as to have all of the stages of Boophilus microplus present (infestation with 5,000 larvae, 22 days, 15 days and 8 days before application of the skin solution).
After application of the skin solutions, the cattle are again infested with the larvae for 13 weeks, to determine the efficacy of the three concentrations.

N#Cc1nn(-c2c(Cl)cc(C(F)(F)F)cc2Cl)c(N)c1[S+]([O-])C(F)(F)F (stereo not drawn) [compound A, 1-[2,6-Cl2 4-CF3phenyl]3-CN 4-[SO-CF3]5-NH2pyrazole]
solubility [1]: 4.3 % m/V
efficacy [2]: 100%
Efficacy index ([3]; 0.25% solution, week 1 of infestation after treatment): 97.6
Efficacy index ([3]; 0.25% solution, week 2 of infestation after treatment): 98.8
Efficacy index ([3]; 0.25% solution, week 3 of infestation after treatment): 99.7
Efficacy index ([3]; 0.25% solution, week 4 of infestation after treatment): 99.3
Efficacy index ([3]; 0.25% solution, week 5 of infestation after treatment): 96.7
Efficacy index ([3]; 0.25% solution, week 6 of infestation after treatment): 98.6
Efficacy index ([3]; 0.25% solution, week 7 of infestation after treatment): 92.4
Efficacy index ([3]; 0.25% solution, week 8 of infestation after treatment): 85.8
Efficacy index ([3]; 0.25% solution, week 9 of infestation after treatment): 28.0
Efficacy index ([3]; 0.25% solution, week 10 of infestation after treatment): 23.0
Efficacy index ([3]; 0.25% solution, week 11 of infestation after treatment): 18.9
Efficacy index ([3]; 0.25% solution, week 12 of infestation after treatment): 1.7
Efficacy index ([3]; 0.25% solution, week 13 of infestation after treatment): 8.4
Efficacy index ([3]; 0.5% solution, week 1 of infestation after treatment): 100
Efficacy index ([3]; 0.5% solution, week 2 of infestation after treatment): 100
Efficacy index ([3]; 0.5% solution, week 3 of infestation after treatment): 100
Efficacy index ([3]; 0.5% solution, week 4 of infestation after treatment): 100
Efficacy index ([3]; 0.5% solution, week 5 of infestation after treatment): 92.9
Efficacy index ([3]; 0.5% solution, week 6 of infestation after treatment): 93.2
Efficacy index ([3]; 0.5% solution, week 7 of infestation after treatment): 88.6
Efficacy index ([3]; 0.5% solution, week 8 of infestation after treatment): 83.4
Efficacy index ([3]; 0.5% solution, week 9 of infestation after treatment): 37.9
Efficacy index ([3]; 0.5% solution, week 10 of infestation after treatment): 41.4
Efficacy index ([3]; 0.5% solution, week 11 of infestation after treatment): 55.2
Efficacy index ([3]; 0.5% solution, week 12 of infestation after treatment): 37.3
Efficacy index ([3]; 0.5% solution, week 13 of infestation after treatment): 48.5
Efficacy index ([3]; 1.0% solution, week 1 of infestation after treatment): 100
Efficacy index ([3]; 1.0% solution, week 2 of infestation after treatment): 100
Efficacy index ([3]; 1.0% solution, week 3 of infestation after treatment): 100
Efficacy index ([3]; 1.0% solution, week 4 of infestation after treatment): 100
Efficacy index ([3]; 1.0% solution, week 5 of infestation after treatment): 100
Efficacy index ([3]; 1.0% solution, week 6 of infestation after treatment): 100
Efficacy index ([3]; 1.0% solution, week 7 of infestation after treatment): 99.7
Efficacy index ([3]; 1.0% solution, week 8 of infestation after treatment): 100
Efficacy index ([3]; 1.0% solution, week 9 of infestation after treatment): 79.8
Efficacy index ([3]; 1.0% solution, week 10 of infestation after treatment): 65.3
Efficacy index ([3]; 1.0% solution, week 11 of infestation after treatment): 61.5
Efficacy index ([3]; 1.0% solution, week 12 of infestation after treatment): 32.2
Efficacy index ([3]; 1.0% solution, week 13 of infestation after treatment): 46.4
period of efficacy against Boophilus microplus ([3]; pour-on skin solutions, cattle): two
